Test results as given in ChEMBL document CHEMBL4665629, “An optimised series of substituted N-phenylpyrrolamides as DNA gyrase B inhibitors” (Eur J Med Chem, 2019).
≈ marks a conversion by molar mass, not a printed value.

Legend:
[1] = system: Escherichia coli; assay: Antibacterial activity against efflux pump d effect ive Escherichia coli JW5503 harbouring tolC mutant assessed as bacterial growth inhibition at 50 uM incubated for 24 hrs by CLSI protocol based broth microdilution assay relative to control; format: functional
[2] = system: Acinetobacter baumannii; assay: Antibacterial activity against Acinetobacter baumannii ATCC 19606 assessed as bacterial growth inhibition at 50 uM incubated for 24 hrs by CLSI protocol based broth microdilution assay relative to control; format: functional; conditions: ATCC 19606 = CIP 70.34 = JCM 6841
[3] = system: Escherichia coli; assay: Antibacterial activity against efflux pump d effect ive Escherichia coli JW5503 harbouring tolC mutant assessed as minimum inhibitory concentration required for >=90% inhibition of bacterial growth by CLSI protocol based broth microdilution assay; format: functional
[4] = system: Enterococcus faecium; assay: Antibacterial activity against Enterococcus faecium ATCC 35667 assessed as bacterial growth inhibition at 50 uM incubated for 24 hrs by CLSI protocol based broth microdilution assay relative to control; format: functional
[5] = molecular target: DNA gyrase (Escherichia coli, UniProt P0AES4+P0AES6); assay: Inhibition of Escherichia coli DNA gyrase using biotinylated oligonucleotide as substrate incubated for 30 mins in presence of ATP by fluorescence-based microplate reader assay; format: protein-complex assay
[6] = Inhibition of Escherichia coli DNA topoisomerase 4 assessed as residual activity at 1 uM using biotinylated oligonucleotide as substrate incubated for 30 mins in presence of ATP by fluorescence-based microplate reader assay relative to control
[7] = system: Escherichia coli; assay: Antibacterial activity against outer membrane impaired Escherichia coli JD17464 harboring lpxC mutant assessed as bacterial growth inhibition at 50 uM incubated for 24 hrs by CLSI protocol based broth microdilution assay relative to control; format: functional
[8] = system: Klebsiella aerogenes; assay: Antibacterial activity against Enterobacter aerogenes ATCC 13408 assessed as bacterial growth inhibition at 50 uM incubated for 24 hrs by CLSI protocol based broth microdilution assay relative to control; format: functional
[9] = system: Staphylococcus aureus; assay: Antibacterial activity against Staphylococcus aureus ATCC 29213 assessed as bacterial growth inhibition at 50 uM incubated for 24 hrs by CLSI protocol based broth microdilution assay relative to control; format: functional
[10] = system: Escherichia coli; assay: Antibacterial activity against Escherichia coli ATCC 25922 assessed as bacterial growth inhibition at 50 uM incubated for 24 hrs by CLSI protocol based broth microdilution assay relative to control; format: functional
[11] = system: Klebsiella pneumoniae; assay: Antibacterial activity against Klebsiella pneumoniae ATCC 700603 assessed as bacterial growth inhibition at 50 uM incubated for 24 hrs by CLSI protocol based broth microdilution assay relative to control; format: functional
[12] = molecular target: Topoisomerase IV (Staphylococcus aureus) (UniProt P0C1U9+P0C1S7); assay: Inhibition of Staphylococcus aureus DNA topoisomerase 4 assessed as residual activity at 1 uM using biotinylated oligonucleotide as substrate incubated for 30 mins in presence of ATP by fluorescence-based microplate reader assay relative to control; format: protein-complex assay
[13] = system: Pseudomonas aeruginosa; assay: Antibacterial activity against Pseudomonas aeruginosa ATCC 27853 assessed as bacterial growth inhibition at 50 uM incubated for 24 hrs by CLSI protocol based broth microdilution assay relative to control; format: functional
[14] = molecular target: DNA gyrase (Staphylococcus aureus) (UniProt P0A0K8+P20831); assay: Inhibition of Staphylococcus aureus DNA gyrase assessed as residual activity at 1 uM using biotinylated oligonucleotide as substrate incubated for 30 mins in presence of ATP by fluorescence-based microplate reader assay relative to control; format: protein-complex assay
[15] = system: Enterococcus faecium; assay: Antibacterial activity against Enterococcus faecium ATCC 35667 assessed as minimum inhibitory concentration required for >=90% inhibition of bacterial growth by CLSI protocol based broth microdilution assay; format: functional
[16] = molecular target: DNA gyrase (Staphylococcus aureus, UniProt P0A0K8+P20831); assay: Inhibition of Staphylococcus aureus DNA gyrase using biotinylated oligonucleotide as substrate incubated for 30 mins in presence of ATP by fluorescence-based microplate reader assay; format: protein-complex assay
[17] = molecular target: Topoisomerase IV (Staphylococcus aureus, UniProt P0C1S7+P0C1U9); assay: Inhibition of Staphylococcus aureus DNA topoisomerase 4 using biotinylated oligonucleotide as substrate incubated for 30 mins in presence of ATP by fluorescence-based microplate reader assay; format: protein-complex assay
[18] = Inhibition of Escherichia coli DNA topoisomerase 4 using biotinylated oligonucleotide as substrate incubated for 30 mins in presence of ATP by fluorescence-based microplate reader assay

| MIC [15] | SMILES | inhibition at 50 µM [1] | inhibition at 50 µM [2] | MIC [3] | inhibition at 50 µM [4] | IC50 [5] | Activity [6] | inhibition at 50 µM [7] | inhibition at 50 µM [8] | inhibition at 50 µM [9] | inhibition at 50 µM [10] | inhibition at 50 µM [11] | Activity [12] | inhibition at 50 µM [13] | Activity [14] | IC50 [16] | IC50 [17] | IC50 [18] |
| --- | --- | --- | --- | --- | --- | --- | --- | --- | --- | --- | --- | --- | --- | --- | --- | --- | --- | --- |
|  | COC(=O)[C@@H](C)NC(=O)c1ccc(NC(=O)c2[nH]c(C)c(Cl)c2Cl)c(OC2CCNCC2)c1 | 97% | 17% | 6.25 µM (≈ 3.11 µg/mL) | 4% | 0.048 µM | 89% | 21% | -2% | 8% | 8% | -7% | 94% | 12% | 49% |  |  |  |
| 11.9 µM (≈ 4 µg/mL) | CC(=O)NC[C@H]1CN(c2ccc(N3CCOCC3)c(F)c2)C(=O)O1 [LINEZOLID] |  |  |  |  |  |  |  |  |  |  |  |  |  |  |  |  |  |
|  | COC(=O)[C@H](C)NC(=O)c1ccc(NC(=O)c2[nH]c(C)c(Cl)c2Cl)c(OC2CCNCC2)c1 | 99% | 21% | 6.25 µM (≈ 3.11 µg/mL) | 7% | 0.04 µM |  | 24% | -4% | 27% | 14% | 0% |  | -1% |  | 1.6 µM | 3.7 µM | 18 µM |
|  | COC(=O)CNC(=O)c1ccc(NC(=O)c2[nH]c(C)c(Cl)c2Cl)c(O[C@H]2CCNC2)c1 | 88% | 2% | 25 µM (≈ 11.7 µg/mL) | 13% | 0.074 µM | 90% | 26% | -3% | 5% | 4% | -5% | 94% | 4% |  | 0.95 µM |  |  |
|  | Cc1[nH]c(C(=O)Nc2ccc(C(=O)NCC(=O)O)cc2OC2CCNCC2)c(Cl)c1Cl | 37% | 1% |  | -1% | 0.017 µM |  | 9% | 4% | 3% | -2% | 5% |  | 15% |  | 0.96 µM | 3.7 µM | 7.2 µM |
|  | Cc1[nH]c(C(=O)Nc2ccc(C(=O)N[C@@H](C)C(=O)O)cc2OC2CCNCC2)c(Cl)c1Cl | 9% | 2% |  | -10% | 0.0099 µM |  | 12% | -2% | -11% | 7% | 5% |  | 9% |  | 0.099 µM | 0.69 µM | 9.1 µM |
|  | Cc1[nH]c(C(=O)Nc2ccc(C(=O)NCC(=O)O)cc2OC2CCN(C(=O)OC(C)(C)C)CC2)c(Cl)c1Cl | -5% | -12% |  | -1% | 0.086 µM |  | -2% | -8% | -10% | 9% | -9% |  | -3% |  | 1.01 µM | 7.4 µM | 10 µM |
|  | Cc1[nH]c(C(=O)Nc2ccc(C(=O)N[C@H](C)C(=O)O)cc2OC2CCNCC2)c(Cl)c1Cl | 35% | 5% |  | 3% | 0.0069 µM |  | 14% | -3% | -1% | 1% | 5% |  | -3% | 31% |  | 0.96 µM | 15 µM |
